Assay results taken from PubChem BioAssay AID2060895 (Molecular Pharmacology Branch, DTP, NCI, 2025).

System: PDC 899932-113-R3-J6 complex spheroid viability
Assay: Anticancer human tumor 899932-113-R3-J6-PDC patient-derived melanoma cell line growth inhibition [RAS]
Conditions: for IC50: curve of first compound; for viability, T/C: stronger effect = lower value
Outline: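 Tumour cells grown as complex spheroids with HUVEC endothelial cells and mesenchymal stem cells, treated with RAS pathway inhibitor combinations. Each agent spans half-log steps from near clinical Cmax, or 10 microM where Cmax is unknown.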

[1] = second compound 0.000949 µM, first compound 0.0316 µM
[2] = second compound 0.000949 µM, first compound 0.1 µM
[3] = second compound 0.000949 µM, first compound 0.316 µM
[4] = second compound 0.000949 µM, first compound 1 µM
[5] = second compound 0.000949 µM, first compound 3.16 µM
[6] = second compound 0.000949 µM, first compound 10 µM
[7] = second compound 0.003 µM, first compound 0.0316 µM
[8] = second compound 0.003 µM, first compound 0.1 µM
[9] = second compound 0.003 µM, first compound 0.316 µM
[10] = second compound 0.003 µM, first compound 1 µM
[11] = second compound 0.003 µM, first compound 3.16 µM
[12] = second compound 0.003 µM, first compound 10 µM
[13] = second compound 0.00949 µM, first compound 0.0316 µM
[14] = second compound 0.00949 µM, first compound 0.1 µM
[15] = second compound 0.00949 µM, first compound 0.316 µM
[16] = second compound 0.00949 µM, first compound 1 µM
[17] = second compound 0.00949 µM, first compound 3.16 µM
[18] = second compound 0.00949 µM, first compound 10 µM
[19] = second compound 0.03 µM, first compound 0.0316 µM
[20] = second compound 0.03 µM, first compound 0.1 µM
[21] = second compound 0.03 µM, first compound 0.316 µM
[22] = second compound 0.03 µM, first compound 1 µM
[23] = second compound 0.03 µM, first compound 3.16 µM
[24] = second compound 0.03 µM, first compound 10 µM
[25] = second compound 0.0949 µM, first compound 0.0316 µM
[26] = second compound 0.0949 µM, first compound 0.1 µM
[27] = second compound 0.0949 µM, first compound 0.316 µM
[28] = second compound 0.0949 µM, first compound 1 µM
[29] = second compound 0.0949 µM, first compound 3.16 µM
[30] = second compound 0.0949 µM, first compound 10 µM
[31] = second compound 0.3 µM, first compound 0.0316 µM
[32] = second compound 0.3 µM, first compound 0.1 µM
[33] = second compound 0.3 µM, first compound 0.316 µM
[34] = second compound 0.3 µM, first compound 1 µM
[35] = second compound 0.3 µM, first compound 3.16 µM
[36] = second compound 0.3 µM, first compound 10 µM
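Wherever viability, T/C is given: spheroids exposed to agents for seven days before readout; 100% = DMSO vehicle control wells.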

## CC(Nc1ccc2c(c1)OCCn1cc(N3C(=O)OCC3C(F)F)nc1-2)C(N)=O (centres undefined) + CCn1c(-c2cc(N3CCN(C)CC3)cnc2C(C)OC)c2c3cc(ccc31)-c1csc(n1)CC(NC(=O)C1CC1C)C(=O)N1CCCC(N1)C(=O)OCC(C)(C)C2
Second compound 0.000949 µM
  IC50: 129 nM
Second compound 0.003 µM
  IC50: < 31.6 nM
Second compound 0.00949 µM
  IC50: < 31.6 nM
Second compound 0.03 µM
  IC50: < 31.6 nM
Second compound 0.0949 µM
  IC50: < 31.6 nM
Second compound 0.3 µM
  IC50: < 31.6 nM
[1]
  viability, T/C: 64.5%
[2]
  viability, T/C: 49.2%
[3]
  viability, T/C: 39.7%
[4]
  viability, T/C: 38.6%
[5]
  viability, T/C: 29.7%
[6]
  viability, T/C: 19.4%
[7]
  viability, T/C: 26.1%
[8]
  viability, T/C: 19.6%
[9]
  viability, T/C: 15.7%
[10]
  viability, T/C: 11.4%
[11]
  viability, T/C: 9.07%
[12]
  viability, T/C: 7.98%
[13]
  viability, T/C: 2.72%
[14]
  viability, T/C: 1.99%
[15]
  viability, T/C: 1.32%
[16]
  viability, T/C: 1.55%
[17]
  viability, T/C: 0.87%
[18]
  viability, T/C: 0.68%
[19]
  viability, T/C: 2.18%
[20]
  viability, T/C: 1.47%
[21]
  viability, T/C: 0.93%
[22]
  viability, T/C: 0.68%
[23]
  viability, T/C: 0.45%
[24]
  viability, T/C: 0.32%
[25]
  viability, T/C: 1.46%
[26]
  viability, T/C: 1.18%
[27]
  viability, T/C: 0.72%
[28]
  viability, T/C: 0.45%
[29]
  viability, T/C: 0.31%
[30]
  viability, T/C: 0.62%
[31]
  viability, T/C: 1.36%
[32]
  viability, T/C: 0.73%
[33]
  viability, T/C: 0.51%
[34]
  viability, T/C: 0.35%
[35]
  viability, T/C: 0.22%
[36]
  viability, T/C: 0.52%

## C[C@@H](NC(=O)c1ncnc(N)c1Cl)c1ncc(C(=O)Nc2cc(C(F)(F)F)c(Cl)cn2)s1 + CCn1c(-c2cc(N3CCN(C)CC3)cnc2C(C)OC)c2c3cc(ccc31)-c1csc(n1)CC(NC(=O)C1CC1C)C(=O)N1CCCC(N1)C(=O)OCC(C)(C)C2
Second compound 0.000949 µM
  IC50: 5630 nM
Second compound 0.003 µM
  IC50: 2600 nM
Second compound 0.00949 µM
  IC50: < 31.6 nM
Second compound 0.03 µM
  IC50: < 31.6 nM
Second compound 0.0949 µM
  IC50: < 31.6 nM
Second compound 0.3 µM
  IC50: < 31.6 nM
[1]
  viability, T/C: 104%
[2]
  viability, T/C: 113%
[3]
  viability, T/C: 124%
[4]
  viability, T/C: 127%
[5]
  viability, T/C: 82%
[6]
  viability, T/C: 18.2%
[7]
  viability, T/C: 66.6%
[8]
  viability, T/C: 76.1%
[9]
  viability, T/C: 83.8%
[10]
  viability, T/C: 82.1%
[11]
  viability, T/C: 44.4%
[12]
  viability, T/C: 12%
[13]
  viability, T/C: 8.34%
[14]
  viability, T/C: 12.9%
[15]
  viability, T/C: 15.3%
[16]
  viability, T/C: 13.6%
[17]
  viability, T/C: 9.29%
[18]
  viability, T/C: 4.48%
[19]
  viability, T/C: 3.38%
[20]
  viability, T/C: 2.96%
[21]
  viability, T/C: 2.78%
[22]
  viability, T/C: 2.66%
[23]
  viability, T/C: 2.41%
[24]
  viability, T/C: 2.96%
[25]
  viability, T/C: 2.75%
[26]
  viability, T/C: 2.95%
[27]
  viability, T/C: 2.73%
[28]
  viability, T/C: 2.82%
[29]
  viability, T/C: 2.56%
[30]
  viability, T/C: 2.32%
[31]
  viability, T/C: 2.53%
[32]
  viability, T/C: 2.03%
[33]
  viability, T/C: 2.73%
[34]
  viability, T/C: 2.35%
[35]
  viability, T/C: 3.08%
[36]
  viability, T/C: 2.77%
